Assay results: paper PMC7497679, “Structure-based design, synthesis, and evaluation of the biological activity of novel phosphoroorganic small molecule IAP antagonists” (Investigational New Drugs, 2020)
Like-named read-outs stand apart in the source and are kept apart here. Square brackets hold non-standard residues; d marks the D form. Ends that are not written are not given here. Chg = N[C@H](C(=O)O)C1CCCCC1; NMeA = CN[C@@H](C)C(=O)O

Columns and labels:
MDA-MB-231 = test: Antiproliferative activity, SRB method; format: cell-based, human; details: read-out: IC50 ± SD (n = 3) MDA-MB-231
From the text: (§1) MDA-MB-231 (human breast cancer), MCF10A (human, nontumorigenic mammary gland epithelial cells), A549 (human nonsmall-cell lung cancer), UMUC-3 (human bladder cancer) and LoVo (human colon cancer) cell lines were obtained from the American Type Culture Collection (ATCC; Rockville, Maryland, USA). The MCF-7 cell line (human breast cancer) was obtained from the European Collection of Cell Cultures (ECACC; Salisbury, UK). All cell lines were maintained at the Hirszfeld Institute of Immunology and Experimental Therapy (HIIET), Wrocław, Poland. MDA-MB-231 cells were cultured in RPMI1640 medium (Thermo Fisher Scientific, Warszawa, Poland) supplemented with 2 mM L-glutamine, 1 mM sodium pyruvate, and 10% fetal bovine serum (all from Sigma-Aldrich, Poznań, Poland). The MCF10A cell line was cultured in Ham’s F12 medium with glutamine (Corning) supplemented with 5% (v/v) fetal bovine serum (FBS), 5% (v/v) horse serum, 10 µg/mL insulin, 0.05 µg/mL cholera toxin, 0.5 µg/mL hydrocortisone, and 20 ng/mL hEGF (all from Sigma-Aldrich). A549 and LoVo cells were cultured in a 1:1 (v/v) mixture of RPMI1640 and Opti-MEM (both from HIIET) supplemented with 5% (v/v) FBS and 2 mM L-glutamine. The UMUC-3 cell line was cultured in high glucose DMEM (Thermo Fisher Scientific) supplemented with 10% FBS and 2 mM Lglutamine. The MCF-7 line was cultured in Eagle’s minimal essential medium (EMEM; Thermo Fisher Scientific) supplemented with 10% (v/v) FBS, 2 mM L-glutamine, 1% (v/v) nonessential amino acids, and 8 µg/mL insulin (all from Sigma-Aldrich). All culture media contained 100 µg/mL streptomycin (Sigma-Aldrich) and 100 U/mL penicillin (Polfa Tarchomin SA, Warszawa, Poland). The cells were grown at 37 °C in a humid atmosphere saturated with 5% CO2.
(§2) Antiproliferative activity was assessed in six cell lines utilizing the sulforhodamine B (SRB) method. Briefly, cells were seeded in 96-well plates (Sarstedt, Warszawa, Poland) at a density of 5 × 10^3 cells/well, and after overnight incubation, the cells were exposed to compounds at various concentrations. After 72 h, the plates were fixed with 50% (v/v) TCA (all from Sigma-Aldrich), washed with tap water, and the precipitated proteins were labeled with 0.1% (w/v) SRB solution in 1% (v/v) AcOH. Next, the plates were washed with 1% (v/v) AcOH, and the remaining SRB dye was solubilized with 10 mM unbuffered TRIS solution. The absorbance was measured using a Biotek Hybrid H4 reader (BioTek Instruments, VT, USA) at 540 nm. Crude results were analyzed using a previously described method, and the results are expressed as the IC50 (compound concentration that reduced cell growth by 50%) compared to the vehicletreated control (0.1% (v/v) DMSO). The samples were analyzed in triplicate, and each experiment was repeated at least three times.

LoVo = test: Antiproliferative activity, SRB method; format: cell-based, human; details: 72 h; for inhibition at 10 µM: Homo sapiens, LoVo, read-out: mean proliferation inhibition at highest concentration used, LoVo
From the text: as §1, §2

MCF-7 = test: Antiproliferative activity, SRB method; format: cell-based, human; details: 72 h; for inhibition at 10 µM: Homo sapiens, MCF7, 10 µM, read-out: mean proliferation inhibition at highest concentration used, MCF-7
From the text: as §1, §2

A549 = test: Antiproliferative activity, SRB method; format: cell-based, human; details: 72 h; for inhibition at 10 µM: Homo sapiens, A549, 10 µM, read-out: mean proliferation inhibition at highest concentration used, A549
From the text: as §1, §2

UMUC-3 = test: Antiproliferative activity, SRB method; format: cell-based, human; details: 72 h; for inhibition at 10 µM: Homo sapiens, UMUC3, 10 µM, read-out: mean proliferation inhibition at highest concentration used, UMUC-3
From the text: as §1, §2

MCF-10A = test: Antiproliferative activity, SRB method; format: cell-based, human; details: 72 h; for inhibition at 10 µM: Homo sapiens, MCF-10A, read-out: mean proliferation inhibition at highest concentration used, MCF-10A
From the text: as §1, §2

XIAP BIR3 domain = molecular target: T1, XIAP BIR3 domain (Homo sapiens, UniProt P98170); test: Fluorescence polarization inhibition (competition) assay; format: binding; details: for inhibition at 50 µM: 0.5 h, antagonist 50 µM, inhibition of protein-probe interaction; for Ki / EC50: XIAP BIR3 50 nM, fluorescent probe 4 2 nM; for interaction with the XIAP BIR3 domain (in words): fluorescence polarization
T1 construct: fluorescent probe 4 and the XIAP BIR3 domain (Sino Biological, Beijing, China) were used for all measurements; purchased Sino Biological, Beijing, China
Procedure: The fluorescence polarization assay was performed at r.t. in Corning 384-well black, polystyrene flat bottom plates (Corning, NY, USA) on a Synergy H4 Hybrid Reader (BioTek, Bad Friedrichshall, Germany). For fluorescence polarization measurements, (milipolarization units, mP) 484/20 nm excitation and 528/20 nm emission filters were selected. Phosphate buffer (pH 7.5) supplemented with γ-globulin (100 µg/mL) and NaN3 (0.02% w/v), fluorescent probe 4 and the XIAP BIR3 domain (Sino Biological, Beijing, China) were used for all measurements. All experiments were performed in duplicate. The obtained fluorescence polarization assay data were analyzed with Prism 5.0 Software (GraphPad Software, San Diego, ca.).
After a 15 min incubation at r.t., fluorescent probe 4 (2 nM) was added. The values were measured 30 min after the moment the probe was added. The assay was performed in phosphate buffer with a final DMSO concentration of 1.4% (v/v). […] In order to evaluate the quality and precision of the performed screening assay, we determined the Z´ factor as described by Zhang et al.. The obtained fluorescence polarization values were used to determine the percent inhibition, which was plotted as a function of the protein concentration. The EC50 and Ki values were calculated with GraphPad software (log(agonist) vs. response (variable slope) model) in combination with the web tool developed by Nikolovska-Coleska et al..
Fluorescence polarization inhibition assay and data analysis for 41m and 42m compounds was performed as described in the Material and Methods section of the manuscript. Briefly, 50 nM solution of the BIR3 XIAP protein in polarization buffer was added into phosphoroorganic compound solution (from 50 μM to 0.0537 nM). After 15 min incubation at r.t. the fluorescent probe 4 (2 nM) was added.
The values were read after 30 minutes from the moment the probe was added. The obtained fluorescence polarization values were used to determine the percentage of inhibition which was plotted as a function of the protein concentration (Supplementary Figure S4).
(1 picture or pasted object on this page, not shown here)

T1 sequence (P98170 252-356 limits assumed): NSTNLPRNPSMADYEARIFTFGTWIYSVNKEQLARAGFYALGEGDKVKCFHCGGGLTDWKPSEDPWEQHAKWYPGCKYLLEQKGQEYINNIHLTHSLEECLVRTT

Compound | inhibition at 50 µM (XIAP BIR3 domain) | Ki (XIAP BIR3 domain) | EC50 (XIAP BIR3 domain; read-out: EC50) | EC50 (XIAP BIR3 domain; read-out: log EC50 (converted)) | other results
[NH2][Pt]([NH2])([Cl])[Cl] [CDDP, cisplatin, reference compound] | – | – | – | – | IC50 (MDA-MB-231; 72 h): 22.1 ± 5.26 µM; IC50 (LoVo; read-out: IC50 ± SD (n = 3) LoVo): 3.9 ± 1.3 µM; IC50 (MCF-7; read-out: IC50 ± SD (n = 3) MCF-7): 5.36 ± 1.8 µM; IC50 (A549; read-out: IC50 ± SD (n = 3) A549): 1.6 ± 0.4 µM; IC50 (UMUC-3; read-out: IC50 ± SD (n = 3) UMUC-3): 3.73 ± 0.63 µM; IC50 (MCF-10A; read-out: IC50 ± SD (n = 3) MCF-10A): 6.76 ± 1.2 µM
CN[C@@H](C)C(=O)N[C@H](C(=O)N1CCC[C@H]1C(=O)NC(Cc1ccccc1)P(=O)(c1ccccc1)c1ccccc1)C(C)C (some centres unmarked) [Compound 13] | 100% | 0.75 µM | 1.53 µM | 1.53 µM | IC50 (MDA-MB-231; Homo sapiens, MDA-MB-231, 72 h): 3.39 ± 0.42 µM; inhibition at 10 µM (LoVo): 6%; inhibition at 10 µM (MCF-7): 22%; inhibition at 10 µM (A549): 2%; inhibition at 10 µM (UMUC-3): 6%; inhibition at 10 µM (MCF-10A): 5%
CN[C@@H](C)C(=O)N[C@H](C(=O)N1CCC[C@H]1C(=O)NC(Cc1ccccc1)P(=O)(c1ccccc1)c1ccccc1)C1CCCCC1 (some centres unmarked) [Compound 14] | 100% | 0.64 µM | 1.31 µM | 1.31 µM | IC50 (MDA-MB-231; Homo sapiens, MDA-MB-231, 72 h): 2.72 ± 0.69 µM; inhibition at 10 µM (LoVo): 7%; inhibition at 10 µM (MCF-7): 20%; inhibition at 10 µM (A549): 5%; inhibition at 10 µM (UMUC-3): 8%; inhibition at 10 µM (MCF-10A): 1%
CCC(NC(=O)[C@@H]1CCCN1C(=O)[C@@H](NC(=O)[C@H](C)NC)C1CCCCC1)P(=O)(Oc1ccccc1)Oc1ccccc1 (stereo partly drawn) [Compound 32, diphenyl (1-((S)-1-((S)-2-cyclohexyl-2-((S)-2-(methylamino)propanamido)acetyl)pyrrolidine-2-carboxamido)propyl)phosphonate] | 71% | 11.9 µM | 24 µM | 24 µM | –
CN[C@@H](C)C(=O)N[C@H](C(=O)N1CCC[C@H]1C(=O)NC(C(C)C)P(=O)(Oc1ccccc1)Oc1ccccc1)C(C)C (stereo partly drawn) [Compound 33, diphenyl (2-methyl-1-((S)-1-((S)-3-methyl-2-((S)-2-(methylamino)propanamido)butanoyl)pyrrolidine-2-carboxamido)propyl)phosphonate] | 58.5% | 17.4 µM | 35 µM | 34.9 µM | –
CN[C@@H](C)C(=O)N[C@H](C(=O)N1CCC[C@H]1C(=O)NC(C(C)C)P(=O)(Oc1ccccc1)Oc1ccccc1)C1CCCCC1 (some centres unmarked) [Compound 34] | 70.5% | 11.8 µM | 23.9 µM | 23.9 µM | –
CCC(C)C(NC(=O)[C@@H]1CCCN1C(=O)[C@@H](NC(=O)[C@H](C)NC)C(C)C)P(=O)(Oc1ccccc1)Oc1ccccc1 (some centres unmarked) [Compound 35] | 77.4% | 8.84 µM | 17.8 µM | 17.8 µM | –
CCC(C)C(NC(=O)[C@@H]1CCCN1C(=O)[C@@H](NC(=O)[C@H](C)NC)C1CCCCC1)P(=O)(Oc1ccccc1)Oc1ccccc1 (some centres unmarked) [Compound 36] | 81.4% | 8.05 µM | 16.2 µM | 16.3 µM | –
CN[C@@H](C)C(=O)N[C@H](C(=O)N1CCC[C@H]1C(=O)NC(CC(C)C)P(=O)(Oc1ccccc1)Oc1ccccc1)C(C)C (some centres unmarked) [Compound 37] | 67.4% | 14 µM | 28.1 µM | 28.1 µM | –
CN[C@@H](C)C(=O)N[C@H](C(=O)N1CCC[C@H]1C(=O)NC(CC(C)C)P(=O)(Oc1ccccc1)Oc1ccccc1)C1CCCCC1 (some centres unmarked) [Compound 38] | 84.2% | 5.25 µM | 10.6 µM | 10.6 µM | –
CN[C@@H](C)C(=O)N[C@H](C(=O)N1CCC[C@H]1C(=O)NC(CCSC)P(=O)(Oc1ccccc1)Oc1ccccc1)C(C)C (some centres unmarked) [Compound 39] | 65.8% | 13 µM | 26.2 µM | 26.2 µM | –
CN[C@@H](C)C(=O)N[C@H](C(=O)N1CCC[C@H]1C(=O)NC(CCSC)P(=O)(Oc1ccccc1)Oc1ccccc1)C1CCCCC1 (stereo partly drawn) [Compound 40, diphenyl (1-((S)-1-((S)-2-cyclohexyl-2-((S)-2-(methylamino)propanamido)acetyl)pyrrolidine-2-carboxamido)-3-(methylthio)propyl)phosphonate] | 73.8% | 13 µM | 26.3 µM | 26.3 µM | –
CN[C@@H](C)C(=O)N[C@H](C(=O)N1CCC[C@H]1C(=O)NC(CCc1ccccc1)P(=O)(Oc1ccccc1)Oc1ccccc1)C(C)C (some centres unmarked) [Compound 43] | 85.4% | – | 17.2 µM | 17.2 µM | –
CN[C@@H](C)C(=O)N[C@H](C(=O)N1CCC[C@H]1C(=O)NC(CCc1ccccc1)P(=O)(Oc1ccccc1)Oc1ccccc1)C1CCCCC1 (stereo partly drawn) [Compound 44, diphenyl (1-((S)-1-((S)-2-cyclohexyl-2-((S)-2-(methylamino)propanamido)acetyl)pyrrolidine-2-carboxamido)-3-phenylpropyl)phosphonate] | 86.5% | 7.57 µM | 15.3 µM | 15.3 µM | –
CN[C@@H](C)C(=O)N[C@H](C(=O)N1CCC[C@H]1c1nc(C(=O)c2ccc(F)cc2)cs1)C1CCCCC1 [LCL-161, reference compound] | – | – | – | – | IC50 (MDA-MB-231; Homo sapiens, MDA-MB-231, 72 h): 0.76 ± 0.23 µM; inhibition at 10 µM (LoVo): 26%; inhibition at 10 µM (MCF-7): 19%; inhibition at 10 µM (A549): 11%; inhibition at 10 µM (UMUC-3): 16%; inhibition at 10 µM (MCF-10A): 2%
[NMeA]-Val-Pro-OH [Compound 1] | – | – | – | – | interaction with the XIAP BIR3 domain (in words) (XIAP BIR3 domain): did not interact with the XIAP BIR3 domain at a significant level
[NMeA]-[Chg]-Pro-OH [Compound 2] | – | – | – | – | interaction with the XIAP BIR3 domain (in words) (XIAP BIR3 domain): did not interact with the XIAP BIR3 domain at a significant level
